Experiments:
Assay in all cases: normalised response (% of control), CellTox Green; higher = less cell death (100 = DMSO, 0 = benzethonium chloride kill control)
Conditions in all cases: incubation time: 72 h
[1] = tested on: BT-474
Method in brief: (§1)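 Each entry is the normalised signal at a single concentration within a series. The series comprised 5 concentrations in 10-fold steps over a compound-specific 10,000-fold range, placed in 384-well plates into which breast cancer cell lines were seeded as 20 µl suspension and incubated 72 h. CellTox Green (485/520 nm) fluorescence and then CellTiter-Glo luminescence were read, with signals normalised per plate to 0.1 % DMSO (100) and a positive kill control (0).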

[2] = tested on: MCF-10A
Method in brief: as §1

[3] = tested on: BT-549
Method in brief: as §1

[4] = tested on: CAL-51
Method in brief: as §1

[5] = tested on: MFM-223
Method in brief: as §1

[6] = tested on: MDA-MB-436
Method in brief: as §1

[7] = tested on: HCC1599
Method in brief: as §1

[8] = tested on: HCC1143
Method in brief: as §1

[9] = tested on: CAL-85-1
Method in brief: as §1

[10] = tested on: MDA-MB-468
Method in brief: as §1

[11] = tested on: Hs578T
Method in brief: as §1

[12] = tested on: CAL-148
Method in brief: as §1

[13] = tested on: DU-4475
Method in brief: as §1

[14] = tested on: MDA-MB-453
Method in brief: as §1

[15] = tested on: HCC1937
Method in brief: as §1

SMILES | normalised response [1] | normalised response [2] | normalised response [3] | normalised response [4] | normalised response [5] | normalised response [6] | normalised response [7] | normalised response [8] | normalised response [9] | normalised response [10] | normalised response [11] | normalised response [12] | normalised response [13] | normalised response [14] | normalised response [15]
Cc1c(N)nc([C@H](CC(N)=O)NC[C@H](N)C(N)=O)nc1C(=O)N[C@H](C(=O)N[C@H](C)[C@@H](O)[C@H](C)C(=O)N[C@H](C(=O)NCCc1nc(-c2nc(C(=O)NCCC[S+](C)C)cs2)cs1)[C@@H](C)O)[C@@H](OC1OC(CO)C(O)C(O)C1OC1OC(CO)C(O)C(OC(N)=O)C1O)c1cnc[nH]1 (stereo partly drawn) [Bleomycin] (1000 nM) | 98.2% | 92.5% | 92% | 44.5% | 88% | 84.5% | 94.8% | 99.9% | 92.7% | 138% | 67.4% | 58.4% | 97.5% | 99.1% | –
Cc1c(N)nc([C@H](CC(N)=O)NC[C@H](N)C(N)=O)nc1C(=O)N[C@H](C(=O)N[C@H](C)[C@@H](O)[C@H](C)C(=O)N[C@H](C(=O)NCCc1nc(-c2nc(C(=O)NCCC[S+](C)C)cs2)cs1)[C@@H](C)O)[C@@H](OC1OC(CO)C(O)C(O)C1OC1OC(CO)C(O)C(OC(N)=O)C1O)c1cnc[nH]1 (stereo partly drawn) [Bleomycin] (10000 nM) | 93.2% | 112% | 82.7% | 43.9% | 94.4% | 68% | 84% | 93.6% | 81.7% | 201% | 24.7% | 47.9% | 92.1% | 90.6% | 80.1%
Cc1cc2c(F)c(Oc3ncnn4cc(OC[C@@H](C)O)c(C)c34)ccc2[nH]1 [Brivanib] (100 nM) | 100% | 107% | 117% | 99.4% | 102% | 81.2% | 99.8% | 79.8% | 103% | 100% | – | 104% | 104% | 103% | 101%
Cc1cc2c(F)c(Oc3ncnn4cc(OC[C@@H](C)O)c(C)c34)ccc2[nH]1 [Brivanib] (1000 nM) | 97.9% | 105% | 95.7% | 101% | 98.6% | 68.3% | 80.2% | 104% | 67.4% | 99.9% | 98.4% | 99.3% | 102% | 92.5% | 112%
CCCCCOC(=O)Nc1nc(=O)n([C@@H]2O[C@H](C)[C@@H](O)[C@H]2O)cc1F [Capecitabine] (1000 nM) | 99.1% | 64.8% | 117% | 113% | 99.4% | 100% | 96.3% | 109% | 109% | – | 71.7% | 76.8% | 99.2% | 103% | 71.6%
CCCCCOC(=O)Nc1nc(=O)n([C@@H]2O[C@H](C)[C@@H](O)[C@H]2O)cc1F [Capecitabine] (10000 nM) | 97.2% | 74.1% | 117% | 99.4% | – | 103% | 102% | 122% | 87.2% | 100% | 56.1% | 99.5% | 97.5% | 104% | 87.1%
CC(C)C[C@H](NC(=O)[C@H](CCc1ccccc1)NC(=O)CN1CCOCC1)C(=O)N[C@@H](Cc1ccccc1)C(=O)N[C@@H](CC(C)C)C(=O)[C@@]1(C)CO1 [Carfilzomib] (100 nM) | 61.4% | 69.7% | 50.8% | 6.93% | 32.8% | 18.8% | 97.3% | 82.7% | -43% | -95.8% | 46.7% | 14.6% | 86.1% | 90.1% | 32.5%
CC(C)C[C@H](NC(=O)[C@H](CCc1ccccc1)NC(=O)CN1CCOCC1)C(=O)N[C@@H](Cc1ccccc1)C(=O)N[C@@H](CC(C)C)C(=O)[C@@]1(C)CO1 [Carfilzomib] (1000 nM) | 45.7% | -56% | 62.5% | 15.1% | 55.2% | 38.2% | 99.5% | 72.1% | -74.2% | -84% | -63.5% | 12.2% | 87.3% | 91.3% | 32.8%
Nc1nc(Cl)nc2c1ncn2[C@@H]1O[C@H](CO)[C@@H](O)[C@@H]1F [Clofarabine] (1000 nM) | 100% | 110% | 70.7% | 12.1% | 99% | 105% | 81.2% | 112% | 88.3% | 145% | 95.3% | 67.1% | 103% | 113% | 109%
CCN(CC)CCOc1ccc(C(=C(Cl)c2ccccc2)c2ccccc2)cc1 [Clomifene] (1000 nM) | 97.6% | 80.3% | 114% | 110% | – | 83.7% | 100% | 82.3% | 99.8% | 68.9% | 102% | 104% | 99.3% | 104% | 82.8%
C[C@@H]1C[C@H]2[C@@H]3CCC4=CC(=O)C=C[C@]4(C)[C@@]3(F)[C@@H](O)C[C@]2(C)[C@@]1(O)C(=O)CO [Dexamethasone] (1000 nM) | 99.3% | 78.1% | 111% | 110% | 54.1% | 81.5% | 87% | 107% | 98.8% | 129% | 77.8% | – | 96% | 94.8% | 106%
CC(C)C(=O)Nc1ccc([N+](=O)[O-])c(C(F)(F)F)c1 [Flutamide] (10000 nM) | 92.6% | 106% | 111% | 100% | 89% | 75.1% | 103% | 96.4% | 103% | 124% | 124% | – | 98.6% | 102% | 101%
